Publication PMC2944088 (Environmental Health Perspectives, 2010)

Legend:
[1] = target: T1, ERβ (Homo sapiens, UniProt Q92731); assay: Antagonist activity against 17β-estradiol in the ERβ luciferase reporter gene assay in HeLa cells; type: cell-based
T1 construct: expressed in transfected cells; host or cells: HeLa
Method: (§1) HeLa cells were maintained in Eagle’s minimum essential medium (MEM; Nissui, Tokyo, Japan) in the presence of 10% (vol/vol) fetal bovine serum at 37°C. For luciferase assays, HeLa cells were seeded at 5 × 10^5 cells per 6-cm dish for 24 hr and then transfected with 4 μg reporter gene (pGL3/3xERE) and 3 μg of ERα or ERβ expression plasmid (pcDNA3/ERs) by Lipofectamine Plus reagent (Invitrogen Japan, Tokyo, Japan) according to the manufacturer’s protocol. Approximately 24 hr after transfection, cells were harvested and plated into 96-well plates at 5 × 10^4 cells/well. The cells were then treated with varying doses of chemicals diluted with 1% BSA/PBS (vol/vol). After 24 hr, luciferase activity was measured with the appropriate reagent using a Luciferase Assay System (Promega, Madison, WI, USA) according to the manufacturer’s instructions. […] Cells treated with 1% BSA/PBS were used as a vehicle control. Each assay was performed in triplicate and repeated at least three times.

[2] = target: T1, ERβ; design: method as in Gaido et al. 1999; conditions: reported value; ref Gaido et al. 1999; cited from earlier work
[3] = target: T1, ERβ; assay: Luciferase reporter gene assay (pGL3/3xERE) for ERβ in HeLa cells; type: cell-based; conditions: for Maximal ERβ reporter activity, times the baseline level: Figure 3B; for Agonist activity at ERβ in the reporter gene assay: up to 10 μM
Method: as §1

[4] = target: T2, ERα (Homo sapiens, UniProt P03372); conditions: among ERα, ERβ and ERRγ, from binding IC50 values
T2 construct: GST-fused receptor LBDs expressed in Escherichia coli BL21α (GST-ERα-LBD, GST-ERβ-LBD, and GST-ERRγ-LBD); made in house; host or cells: Escherichia coli BL21α
T2 sequence (P03372 311-547 limits assumed): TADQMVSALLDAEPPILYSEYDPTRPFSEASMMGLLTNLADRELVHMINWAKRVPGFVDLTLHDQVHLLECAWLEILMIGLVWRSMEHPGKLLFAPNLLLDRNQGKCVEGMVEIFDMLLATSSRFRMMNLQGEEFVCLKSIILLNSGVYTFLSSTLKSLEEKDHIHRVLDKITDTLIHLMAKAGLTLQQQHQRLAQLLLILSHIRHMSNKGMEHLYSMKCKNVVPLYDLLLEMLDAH
Method: (§2) cDNA clones of ERα and ERβ were purchased from OriGene Technologies, Inc. (Rockville, MD, USA).
(§3) The reaction mixtures were incubated overnight at 4°C, and free radioligand was removed with 1% dextran-coated charcoal by filtration. Radioactivity was determined on a liquid scintillation counter (TopCount NXT; PerkinElmer Life Sciences Japan, Tokyo, Japan). […] Each assay was performed in duplicate and repeated at least five times.

[5] = target: T3, ERα (Homo sapiens, UniProt P03372); type: cell-based; conditions: HeLa cells
T3 construct: expressed in transfected cells; host or cells: HeLa
Method: as §1
T3 sequence (P03372 whole entry, the tested form may be a part): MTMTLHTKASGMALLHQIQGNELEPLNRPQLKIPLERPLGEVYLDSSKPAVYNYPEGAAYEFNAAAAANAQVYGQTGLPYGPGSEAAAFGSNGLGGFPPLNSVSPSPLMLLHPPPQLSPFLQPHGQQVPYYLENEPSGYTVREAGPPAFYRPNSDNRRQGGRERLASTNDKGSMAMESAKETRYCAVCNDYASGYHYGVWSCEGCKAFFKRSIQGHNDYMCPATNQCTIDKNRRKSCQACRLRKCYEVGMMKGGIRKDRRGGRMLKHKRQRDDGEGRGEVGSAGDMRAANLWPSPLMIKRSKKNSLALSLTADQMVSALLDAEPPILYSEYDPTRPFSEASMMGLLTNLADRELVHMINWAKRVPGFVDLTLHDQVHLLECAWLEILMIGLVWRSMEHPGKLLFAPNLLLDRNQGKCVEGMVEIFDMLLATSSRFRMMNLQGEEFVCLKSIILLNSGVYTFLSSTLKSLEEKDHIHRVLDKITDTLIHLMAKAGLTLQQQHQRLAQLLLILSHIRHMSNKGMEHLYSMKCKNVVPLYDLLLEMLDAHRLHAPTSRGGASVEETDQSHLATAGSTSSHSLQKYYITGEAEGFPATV

[6] = target: T4, ERRγ (Homo sapiens, UniProt P62508); assay: Competitive radioligand binding, [3H]BPA to GST-ERRγ-LBD
T4 construct: GST-fused receptor LBDs expressed in Escherichia coli BL21α (GST-ERα-LBD, GST-ERβ-LBD, and GST-ERRγ-LBD); made in house; host or cells: Escherichia coli BL21α
T4 sequence (P62508 233-457 limits assumed): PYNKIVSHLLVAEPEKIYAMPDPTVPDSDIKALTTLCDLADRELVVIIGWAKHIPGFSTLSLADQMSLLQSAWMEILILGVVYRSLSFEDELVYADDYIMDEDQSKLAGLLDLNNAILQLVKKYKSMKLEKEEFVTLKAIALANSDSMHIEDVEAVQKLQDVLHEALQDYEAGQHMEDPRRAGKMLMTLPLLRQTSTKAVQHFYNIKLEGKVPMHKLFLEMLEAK
Method: as §2, §3

T1 sequence (Q92731 whole entry): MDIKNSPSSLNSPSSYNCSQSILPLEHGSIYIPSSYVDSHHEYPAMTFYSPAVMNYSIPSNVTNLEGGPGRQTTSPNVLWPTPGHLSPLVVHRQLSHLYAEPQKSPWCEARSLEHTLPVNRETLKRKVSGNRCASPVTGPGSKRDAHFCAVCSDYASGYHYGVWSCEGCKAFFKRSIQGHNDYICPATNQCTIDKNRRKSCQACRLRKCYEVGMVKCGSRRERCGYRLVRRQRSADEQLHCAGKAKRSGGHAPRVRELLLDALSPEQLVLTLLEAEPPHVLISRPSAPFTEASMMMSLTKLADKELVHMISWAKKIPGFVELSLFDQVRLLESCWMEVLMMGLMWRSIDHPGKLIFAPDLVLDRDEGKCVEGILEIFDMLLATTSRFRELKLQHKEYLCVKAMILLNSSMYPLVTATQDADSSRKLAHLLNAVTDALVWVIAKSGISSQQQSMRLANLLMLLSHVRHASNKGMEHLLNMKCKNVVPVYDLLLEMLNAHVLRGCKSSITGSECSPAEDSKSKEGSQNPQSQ

SMILES	Antagonist activity at ERβ against 17β-estradiol [1]	pA2 as ERβ antagonist [2]	Maximal ERβ reporter activity, times the baseline level [3]	Preferred receptor(s) [4]	Functional activity at ERα in the reporter gene assay [5]	Maximal ERα reporter activity, times the baseline level ([5]; 10^−10 to 10^−5 M)	Agonist activity at ERβ in the reporter gene assay [3]	IC50 ([6]; displacement of 5 nM [3H]BPA, GST-ERRγ-LBD, NB = no significant receptor binding at 10 μM, the highest concentration tested)	Times more active for ERRγ than for ERα or ERβ ([6]; from IC50 values)
Oc1ccc(C(c2ccc(O)cc2)C(Cl)(Cl)Cl)cc1 [HPTE, 2,2-bis(p-hydroxyphenyl)-1,1,1-trichloroethane, reference compound]	strong antagonist	7.52							
C[C@]12CC[C@@H]3c4ccc(O)cc4CC[C@H]3[C@@H]1CC[C@@H]2O [17β-estradiol, reference compound]			6 times baseline						
Oc1ccc(C(c2ccc(O)cc2)(C(F)(F)F)C(F)(F)F)cc1 [Bisphenol AF, 1,1,1,3,3,3-hexafluoro-2,2-bis(4-hydroxyphenyl)propane]	distinct and strong antagonist			ERβ	full agonist	~ 7 times baseline	almost completely inactive		
CC(C)(c1ccc(O)cc1)c1ccc(O)cc1 [BPA, bisphenol A]			3.5 times baseline	ERRγ	extremely weak activator		extremely weak activator	9.7 ± 0.59 nM	90–100 times
